One data set deals with CYP1A2 (Homo sapiens, UniProt P05177). Nature of the data set: Metabolism by recombinant human CYP1A2. Conditions: read-out: terminal half life (T1/2), rh CYP1A2. It is filed as in vitro ADME. How it is done: (§1) Drug metabolizing enzymes involved in the biotransformation of Compound I were investigated using human liver microsomes (HLM) and recombinant enzymes. Compound I was stable in HLMs (>93% remaining after 240 minutes of incubation with HLM protein concentration at 0.6 mg/ml). CYP selective inhibitor experiments were not performed due to lack of appreciable Compound I turnover.
CYP1A2, sequence (P05177 whole entry): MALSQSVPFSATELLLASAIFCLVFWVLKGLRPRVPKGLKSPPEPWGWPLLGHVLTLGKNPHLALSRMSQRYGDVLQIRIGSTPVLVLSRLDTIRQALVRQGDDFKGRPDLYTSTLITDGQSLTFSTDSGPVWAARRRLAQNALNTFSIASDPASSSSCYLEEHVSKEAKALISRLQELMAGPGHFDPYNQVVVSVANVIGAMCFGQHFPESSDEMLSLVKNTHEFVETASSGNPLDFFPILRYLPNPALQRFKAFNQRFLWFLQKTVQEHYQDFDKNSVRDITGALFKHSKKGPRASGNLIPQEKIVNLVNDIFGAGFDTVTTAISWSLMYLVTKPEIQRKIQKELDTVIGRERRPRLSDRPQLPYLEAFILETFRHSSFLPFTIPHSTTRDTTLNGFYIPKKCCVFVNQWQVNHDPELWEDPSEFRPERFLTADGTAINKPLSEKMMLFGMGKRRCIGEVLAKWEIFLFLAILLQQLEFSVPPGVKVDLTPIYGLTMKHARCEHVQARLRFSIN

Data set [1] relates to CT26_STK11KO tumor (KRAS G12D). Kind of data set: Anti-tumor efficacy in CT26_STK11KO colon carcinoma model. It is filed as in vivo, mouse. Conditions: for ORR % / TGI %: CT26 STK11KO. The protocol: In this example, the anti-tumor activity of a combination treatment of anti-PD1 antibody with Compound I was determined in vivo in STK11-deleted syngeneic mouse models.
Briefly, mice were inoculated with STK11-deleted CT26 (murine colorectal carcinoma cell line) tumor model in a manner similar to that described in Example 1. The tumor model was resistant to murine anti-PD1 antibody by knockout of the STK11. Mice were treated with Compound I orally once daily and with anti-PD1, anti-IgG2a control, or anti-PD1 control twice per week as indicated. Tumor volume and survival was monitored over the course of treatment and plotted by individual animal for tumor volume (FIG. 7A) and by group for survival (FIG. 7B).
An in vivo anti-tumor efficacy of combination treatment of Anti-PD1 and Compound I in a CT26 mouse model was evaluated. CT26 is a colon carcinoma cell line with an endogenous KRAS G12D mutation. The experiment was performed in the parental/wild type line and in a line engineered with an STK11 knock-out (CT26_STK11KO) resulting in an anti-PD1 resistant model with lower CD8+ T cell infiltration.
In each of the experiments, the animals (8/group) were divided into four groups. Group I was treated with a control antibody Anti-IgG2, group 2 was treated with Compound I 75 mg/kg, group 3 was treated with anti-PD1 antibody, and group 4 was treated with Compound I 75 mg/kg and anti-PD1 antibody. Tumor volume and survival was monitored over the course of treatment. For the CT26_STK11KO model, the tumor volume was plotted by individual animal (FIG. 15A) and by treatment group (FIG. 15B). Survival was plotted by treatment group (FIG. 15C).
An in vivo anti-tumor efficacy of combination treatment of anti-CTLA4 and Compound I in a CT26 mouse model was evaluated. CT26 is a colon carcinoma cell line with an endogenous KRAS G12D mutation. The experiment was performed in the parental/wild type line and in a line engineered with an STK11 knock-out (CT26_STK11KO) resulting in an anti-CTLA4-resistant model.
An in vivo anti-tumor efficacy of double combination treatment of Anti-CTLA4 and Compound I in a CT26 syngeneic model was performed. CT26 is a colon carcinoma cell line. The experiment was also performed with an STK11-null CT26 model, this model is CTLA4 resistant.
There were 8 mice per group. Group I was treated with a control antibody Anti-IgG2, group 2 was treated with Compound I 75 mg/kg, group 3 was treated with anti-CTLA4 antibody, and group 4 was treated with Compound I 75 mg/kg and anti-CTLA4 antibody. Tumor volume was monitored over the course of treatment. The tumor volume was plotted by treatment group (FIG. 16A), and the individual animals were plotted for group 1 and group 4 (FIG. 16B), for the parental model. The tumor volume was plotted by treatment group (FIG. 16C), and the individual animals were plotted for group 1 and group 4 (FIG. 16D), for the STK11 knockout model.

The next data set addresses CYP2C8 (Homo sapiens, UniProt P10632). Kind of data set: Metabolism by recombinant human CYP2C8. Format: in vitro ADME. Conditions: read-out: terminal half life (T1/2), rh CYP2C8. How it is done:
as §1

Data set [2] is described as follows: Stability in human liver microsomes. It is filed as in vitro ADME. Conditions: 240 minutes; HLM protein concentration 0.6 mg/ml. The protocol:
as §1

The test system of data set [3] is cytokines and antigen presentation genes. Nature of the data set: Nanostring PanCancer IO 360 cytokine and HLA gene profiling of STK11-/- MC38. Also noted: species or system mouse. The settings on record: 30 mg/kg for 7 days in vivo; 0.2 uM for 4 days in vitro. How it is done: The cytokine expression of tumors from mice treated with Compound I was determined by Nanostring PanCancer IO 360 analysis.
Briefly, STK11−/− MC38 tumors from mice treated for 7 days with 30 mg/kg of Compound I or anti-PD1 antibody alone or in combination were collected 8 hours post last dose. The gene expression profiles of CXCL9, CXCL10, and CXCL11 of the tumors were determined by Nanostring PanCancer IO 360 (FIG. 9A). Additionally, the gene expression profiles of Treg-recruiting chemokines CCL1 and CCL22 of the tumors were determined by Nanostring PanCancer IO 360 (FIG. 9B).
STK11-deficient MC38 cells were also profiled for HLA gene expression by Nanostring IO360 panel in vitro after 4 days of treatment with Compound I at 0.2 uM compared to DMSO solvent control (FIG. 9C).

In another data set the test system is H3K9Ac. Nature of the data set: H3K9Ac in MC38 tumor tissue by Western blot. It is filed as in vivo, mouse. Conditions: 3, 10, 30 mg/kg for 7 days; tissue 8 hours post last dose; normalized to total histone H3. How it is done: Formation and accumulation of acetylated histone 3 lysine 9 (H3K9Ac) in MC38 tumor tissue from mouse after treatment with Compound I was determined by Western blot. Briefly, female C57BL/6 mice with MC38 tumors were treated with Compound I for 7 days at the indicated dose (3 mg/kg, 10 mg/kg, and 30 mg/kg). Tissue was collected 8 hours post last dose and the H3K9Ac accumulation was quantified by Western blot in (FIG. 14A) and normalized to total histone H3 (FIG. 14B).
Background: A western blot detects proteins with antibodies after separation by electrophoresis.

Data set [4] in a line: PK/PD study, body weight and clinical signs. Conditions: 30, 100, 300 mg/kg QD for 2 days. Format: in vivo, C57BL/6 mice. How it is done:
In a separate PK/PD study, MC38 tumor-bearing female C57BL/6 mice (12/group) were assigned to treatment groups with similar mean tumor volumes of approximately 430 mm^3 and treated with vehicle (5% N,N-dimethylacetamide [DMA]+30% polyethylene glycol [PEG] 400+65% of 30% 2-hydroxypropyl-beta-cyclodextrin [HP-β-CD] in water) or Compound I at 30, 100, and 300 mg/kg once daily (QD) for 2 days. Plasma samples were collected at 1, 2, 8 and 24 hours after last dose and analyzed for Compound I concentrations. Peripheral blood mononuclear cells (PBMC) and tumor samples were harvested at 2, 8, and 24 hours after last dose. The PBMC samples were processed for determination of mean florescent level of acetyl-histone H2B by flow cytometry. Tumor samples were processed for determination of protein levels of acetyl-histone H3 by Western blot.

Where [5] appears, read: Compound I 75 mg/kg QD alone, second of two values (two experiments, Examples 14 and 15).
Setting [6] is: Compound I 75 mg/kg QD, antibodies 10 mg/kg, for Compound I alone the first of two printed values.

CYP2C8, sequence (P10632 whole entry): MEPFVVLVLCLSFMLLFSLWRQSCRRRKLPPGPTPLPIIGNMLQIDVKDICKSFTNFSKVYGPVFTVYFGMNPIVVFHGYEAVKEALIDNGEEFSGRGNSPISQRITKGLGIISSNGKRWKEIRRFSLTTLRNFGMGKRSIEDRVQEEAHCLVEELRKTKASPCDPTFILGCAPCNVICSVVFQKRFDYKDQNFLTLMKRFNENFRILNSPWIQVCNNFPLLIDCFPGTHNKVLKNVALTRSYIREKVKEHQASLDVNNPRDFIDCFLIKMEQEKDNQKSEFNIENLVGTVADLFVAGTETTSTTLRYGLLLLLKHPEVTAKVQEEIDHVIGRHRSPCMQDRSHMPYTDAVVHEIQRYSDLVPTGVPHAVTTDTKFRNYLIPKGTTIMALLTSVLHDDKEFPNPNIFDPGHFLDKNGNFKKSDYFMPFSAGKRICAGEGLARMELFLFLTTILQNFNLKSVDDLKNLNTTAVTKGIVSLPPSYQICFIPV

As for `C[S@@](=N)(=O)c1ccc(C(=O)Nc2cc(-c3ccc(F)cc3)ccc2N)cc1` [Compound I, (R)—N-(4-amino-4′-fluoro-[1,1′-biphenyl]-3-yl)-4-(S-methylsulfonimidoyl)benzamide], the half-life at CYP1A2 and on CYP2C8 was > 1 h each time. For the same compound, the ORR % in data set [1] (setting [5]) was found to be 38%; in data set [1] (setting [6]), 0%. Also, the figures for the TGI % in data set [1] (setting [5]) and in data set [1] (setting [6]) were 70% and 39%, respectively. The “resistance to immune checkpoint blockade driven by loss of STK11” value in data set [1] (tumor models for colon adenocarcinoma and colorectal carcinoma (Examples 1 and 5)) is on record as “reverses resistance to immune checkpoint blockade”. For the same compound, the “remaining after incubation with HLM” value in data set [2] is > 93%. In addition, the “immune evasion; expression of cytokines and antigen presentation genes” value in data set [3] is on record as “reverses immune evasion on tumor cells”. The “H3K9Ac accumulation in MC38 tumor tissue” value in the data set with H3K9Ac is “dose dependent accumulation of H3K9Ac”. For the same compound, in data set [4], the “body weight loss and clinical signs” value is recorded as “No obvious body weight loss of more than 5% or adverse clinical signs”.

Values taken from patent US20260041653A1, “AN HDAC INHIBITOR FOR TREATING CANCER WITH A MODIFIED STK11 ACTIVITY OR EXPRESSION” (Tango Therapeutics, Inc., priority 2022, published 2026).
